Test results reported in patent US20230301893A1, “Hair Growth and Scalp Preparations” (priority 2020, published 2023).
No end group written: not given here.

Legend:
[1] = tested on: normal human vascular endothelial cells (NHVEC); assay: Boyden chamber migration assay; format: cell-based; conditions: for cell migration over migration in the presence of media alone / migration response compared to three positive controls (VEGF, PDGF, FGF): 100 ng/ml; for Cell Number per HPF, Chamber 1 / Cell Number per HPF, Chamber 2 / Cell Number per HPF, Chamber 3 / Cell Number per HPF, Mean: 5×10^4 cells per well
Description: The effects of TB4 and TA1 on endothelial cell migration were determined. To investigate the possibility that these peptides effect the migration of normal human vascular endothelial cells (NHVEC) in vitro, a Boyden chamber migration assay was performed.
In the experiments of Table 1 and FIG. 1, normal human microvesicular endothelial cells are used at 5×10^4 cells per well. The wells are coated with 100 µg/ml […] Type IV.

[2] = tested on: endothelial cells; assay: MTT (tetrazolium) endothelial cell proliferation assay; format: cell-based; conditions: 10 ng/ml; 4 hours and 24 hours tested
Description: The effects of TB4 and TA1 on endothelial cell proliferation were determined using a MTT (tetrazolium) assay. The results are shown in FIG. 2 for 4 hours and 24 hours and for three concentrations of these peptides, 10 ng/ml, 100 ng/ml, and 1000 ng/ml. […] At a concentration of 10 ng/ml, TB4 and TA1 maximally stimulated cell proliferation approximately 2-fold and 3-fold over that of the control, respectively.

[3] = Isoelectric point of the peptide; format: physicochemical

Ac-ANKGQAPGEAMKPSFLKEKKEVVERSKEEEGPAKMNLVIEMPKD (Ac-ANKGQAPGEAMKPSFLKEKKEVVERSKEEEGPAKMNLVIEMPKD) [TB4]
cell migration over migration in the presence of media alone [1]: significantly enhanced | migration response compared to three positive controls (VEGF, PDGF, FGF) [1]: heightened responses

Ac-SDAAVDTSSEITTKDLKEKKEVVEEAEN (Ac-SDAAVDTSSEITTKDLKEKKEVVEEAEN) [TA1, may be derived by cleavage of thymosin]
Cell Number per HPF, Chamber 1 ([1]; 0.1 µg/ml): 38 per HPF | Cell Number per HPF, Chamber 2 ([1]; 0.1 µg/ml): 45 per HPF | Cell Number per HPF, Chamber 3 ([1]; 0.1 µg/ml): 33 per HPF | Cell Number per HPF, Mean ([1]; 0.1 µg/ml): 39 per HPF | cell migration over migration in the presence of media alone [1]: significantly enhanced | migration response compared to three positive controls (VEGF, PDGF, FGF) [1]: heightened responses | Cell Number per HPF, Chamber 1 ([1]; 0.5 µg/ml): 52 per HPF | Cell Number per HPF, Chamber 2 ([1]; 0.5 µg/ml): 53 per HPF | Cell Number per HPF, Chamber 3 ([1]; 0.5 µg/ml): 57 per HPF | Cell Number per HPF, Mean ([1]; 0.5 µg/ml): 54 per HPF | Cell Number per HPF, Chamber 1 ([1]; 1 µg/ml): 64 per HPF | Cell Number per HPF, Chamber 2 ([1]; 1 µg/ml): 69 per HPF | Cell Number per HPF, Chamber 3 ([1]; 1 µg/ml): 43 per HPF | Cell Number per HPF, Mean ([1]; 1 µg/ml): 59 per HPF | Cell Number per HPF, Chamber 1 ([1]; 5 µg/ml): 35 per HPF | Cell Number per HPF, Chamber 2 ([1]; 5 µg/ml): 64 per HPF | Cell Number per HPF, Chamber 3 ([1]; 5 µg/ml): 72 per HPF | Cell Number per HPF, Mean ([1]; 5 µg/ml): 57 per HPF | Cell Number per HPF, Chamber 1 ([1]; 10 µg/ml): 51 per HPF | Cell Number per HPF, Chamber 2 ([1]; 10 µg/ml): 55 per HPF | Cell Number per HPF, Chamber 3 ([1]; 10 µg/ml): 66 per HPF | Cell Number per HPF, Mean ([1]; 10 µg/ml): 57 per HPF | concentration of maximal effect on migration ([1]; dose response): 100 ng/mL | maximal stimulation of cell proliferation over that of the control [2]: ~3 fold | isoelectric point [3]: 4.1
